Laboratory results from patent publication US20260069584A1, “METHODS OF TREATING CHRONIC MYELOID LEUKEMIA USING THE TYROSINE KINASE INHIBITOR VODOBATINIB” (Sun Pharma Advanced Research Company Ltd., priority 2022, published 2026).

How the values were obtained:
[1] = test system: Ph+ CML (CP CML, AP CML, and BP CML); experiment: Phase 2 open-label study (Part C) in CML resistant or intolerant to ≥3 prior TKIs including ponatinib: disease response; format: in vivo, human
Procedure: A multicenter open-label study in subjects with CML (CP CML, AP CML, and BP CML) who documented resistance or intolerance to more than or equal to 3 prior TKIs one of which included ponatinib was performed. The subjects for this were grouped as follows: • a) Cohort A—Ph+ CML: Chronic phase (CP CML) cohort • b) Cohort B—Ph+ CML: Accelerated phase (AP) cohort • c) Cohort C—Ph+ CML: Blast phase (BP) cohort.
The primary objective of this study was to evaluate the efficacy of the compound of Formula I in CP CML patients by cytogenetic outcomes and in AP CML and BP CML patients by hematologic outcomes. Secondary objectives included evaluation of anti-leukemic efficacy of compound of Formula I by molecular outcomes, hematological outcomes in CP CML patients, and by cytogenetic outcomes in AP CML and BP CML; time to first hematologic response; duration of response; progression-free survival (PFS) and overall survival (OS), population PK of the compound of Formula I and safety.
The selection criteria for subjects (Both inclusion and exclusion) were the same as those set forth above study, except for the following: Subjects had to be previously treated with ≥3 prior TKIs including the 3rd generation TKI, ponatinib; subjects with Ph+ ALL were not included in this study; subjects with presence of T3151 mutations were excluded in the study. Limited to no response on a TKI therapy is reported in CML patients post-ponatinib treatment (Leuk Lymphoma 2018 June; 59 (6): 1312-1322).
Patients were followed for survival by telephone survey.
The Compound of Formula I with 174 mg as capsules was administered orally once daily continuously in 4-week cycles. Patients self-administered the compound of Formula I on an outpatient basis at approximately the same time each morning after overnight fasting or fasting ˜2 hours before and after dosing.
Bone marrow aspirate samples were sent for review of cytogenetics by conventional Giemsa staining method (karyotyping). Fluorescence in situ hybridization (FISH) was performed on bone marrow aspirates only in cases of subjects who had achieved complete cytogenetic response (confirmed by karyotyping) with the studied drug and who had minimum residual disease. FISH was also used if a sufficient sample was not available for conducting the Giemsa staining method (karyotyping).
Standard cytogenetic methods were used to determine the presence of the Ph+ and its presence (percentage) in the bone marrow. At least 20 cells in metaphase were evaluated for karyotyping. Bone marrow cytogenetics was scheduled to be performed within 7 days of the scheduled date irrespective of missed doses or disease or dose-associated AEs.
Molecular response monitoring (MMR) using PCR for BCR-ABL copy number was performed on the collected blood samples and was assessed using the international scale (IS).
The hematologic response was evaluated by peripheral blood utilizing local laboratory results.

[2] = Part C: adverse events
Procedure: In this study, the patient population of each cohort was evaluated separately for efficacy and safety. The subjects were treated in 4-week cycles using once-daily, oral administration of the compound of Formula I and evaluated for anti-CML responses (hematological, cytogenetic and molecular response). The Adverse events (AEs) were assessed throughout the study until 30 days after discontinuation of administration of the compound of Formula I and were graded as per National Cancer Institute, Common Terminology Criteria for Adverse Events (NCI-CTCAE) Version 5.0.
Study assessments monitored the efficacy and safety of the compound of Formula I. The efficacy assessments at baseline included cytogenetic, molecular, and hematology evaluations and sequencing for identification of the BCR-ABL kinase domain mutation, if any. Cytogenetic and molecular assessments were carried out by central labs. Hematologic assessments were completed within the −7 to −1 days of the patient was dosed by the site's local laboratory. Safety assessments at baseline included clinical evaluations, electrocardiograms, complete blood counts, and serum chemistry tests.
Patients were evaluated every 7 days in 4-week cycles up until Cycle 3 day 1, after which they were required to visit the site on Cycle 3 day 28; and once every 3 cycles thereafter for complete blood counts, chemistry analyses, and efficacy assessments. Each cycle visit included clinical evaluations, electrocardiograms, complete blood counts, and serum chemistry tests. Efficacy assessments consisting of bone marrow aspiration for cytogenetic analysis with molecular testing to measure the BCR/ABL1 transcript levels were carried out every 3 months. On discontinuation, patients were required to visit the site for an End of Treatment (EoT) visit which happened 30 days after the date of discontinuation of therapy. Patients were followed for survival by telephone survey.

[3] = target: ABL1 kinase and its mutant forms; experiment: In-vitro ABL1 kinase inhibition; format: biochemical

Cc1ccc(C(=O)NNC(=O)c2c(C)cccc2Cl)cc1C#Cc1cnc2ccccc2c1 [compound of Formula I, N′-(2-chloro-6-methylbenzoyl)-4-methyl-3-[2-(3-quinolyl)ethynyl]-benzohydrazide]
Best Cytogenetic Response: Complete Cytogenetic Response ([1]; 174 mg (N = 7)): 1 (14.3%)
Best Cytogenetic Response: Major Cytogenetic Response ([1]; 174 mg (N = 7)): 2 (28.6%)
Best Cytogenetic Response: Minimal Cytogenetic Response ([1]; 174 mg (N = 7)): 0
Best Cytogenetic Response: Minor Cytogenetic Response ([1]; 174 mg (N = 7)): 0
Best Cytogenetic Response: No Response ([1]; 174 mg (N = 7)): 2 (28.6%)
Best Cytogenetic Response: Partial Cytogenetic Response ([1]; 174 mg (N = 7)): 1 (14.3%)
Best Hematologic Response: Complete Hematologic Response ([1]; 174 mg (N = 7)): 6 (85.7%)
Best Hematologic Response: Major Hematologic Response ([1]; 174 mg (N = 7)): 6 (85.7%)
Best Hematologic Response: No Evidence of Leukemia ([1]; 174 mg (N = 7)): 0
Best Hematologic Response: No Response ([1]; 174 mg (N = 7)): 1 (14.3%)
Best Molecular Response: Complete Response ([1]; 174 mg (N = 7)): 0
Best Molecular Response: Major Response ([1]; 174 mg (N = 7)): 1 (14.3%)
Best Molecular Response: No Response ([1]; 174 mg (N = 7)): 4 (57.1%)
Major molecular response (MMR) as best response ([1]; 1 of the 7 enrolled subjects, 174 mg): 14.3%
Complete hematological response (CHR) as best response ([1]; 2 of the 2 AP-CML enrolled subjects): 100%
Major cytogenetic response (MCyR) as best response ([1]; 2 of the 7 enrolled subjects, 174 mg): 28.6%
major hematological response (MaHR) as best response ([1]; 6 of the 7 enrolled subjects, 174 mg): 85.7%
Major molecular response (MMR) as best response ([1]; 6 of the 13 enrolled CP-CML subjects): 46.2%
achieved MaHR in the study ([1]; 7 enrolled subjects, 174 mg): 5 subjects
came into the study in MaHR and maintained it ([1]; 7 enrolled subjects, 174 mg): 1 subject
Major cytogenetic response (MCyR) as best response ([1]; 11 CP-CML enrolled subjects): 84.6%
Complete hematological response (CHR) as best response ([1]; 13 of the 15 CP-CML enrolled subjects): 86.7%
achieved CHR in study ([1]; CP-CML, of 13): 9 subjects
came into the study in CHR and maintained it ([1]; CP-CML, of 13): 4 subjects
developed CCyR ([1]; CP-CML, of the 13 subjects): 61.5%
TEAE cough ([2]; 19 subjects): 21.1%
TEAE dyspnea ([2]; 19 subjects): 21.1%
TEAE fatigue ([2]; 19 subjects): 21.1%
TEAE nausea ([2]; 19 subjects): 26.3%
TEAE neutropenia ([2]; 19 subjects): 21.1%
TEAE rash ([2]; 19 subjects): 26.3%
TEAE thrombocytopenia ([2]; 19 subjects): 31.6%
Abdominal pain ([2]; All Grades (N = 19)): 2 (10.5) n (%)
Anaemia ([2]; All Grades (N = 19)): 3 (15.8) n (%)
Arthralgia ([2]; All Grades (N = 19)): 2 (10.5) n (%)
Back pain ([2]; All Grades (N = 19)): 2 (10.5) n (%)
COVID-19 ([2]; All Grades (N = 19)): 2 (10.5) n (%)
Chest pain ([2]; All Grades (N = 19)): 2 (10.5) n (%)
Constipation ([2]; All Grades (N = 19)): 3 (15.8) n (%)
Contusion ([2]; All Grades (N = 19)): 2 (10.5) n (%)
Cough ([2]; All Grades (N = 19)): 4 (21.1) n (%)
Diarrhoea ([2]; All Grades (N = 19)): 3 (15.8) n (%)
Dizziness ([2]; All Grades (N = 19)): 2 (10.5) n (%)
Dry skin ([2]; All Grades (N = 19)): 3 (15.8) n (%)
Dyspnoea ([2]; All Grades (N = 19)): 4 (21.1) n (%)
Fatigue ([2]; All Grades (N = 19)): 4 (21.1) n (%)
Flank pain ([2]; All Grades (N = 19)): 2 (10.5) n (%)
Headache ([2]; All Grades (N = 19)): 3 (15.8) n (%)
Herpes zoster ([2]; All Grades (N = 19)): 2 (10.5) n (%)
Hypertension ([2]; All Grades (N = 19)): 3 (15.8) n (%)
Hyperuricaemia ([2]; All Grades (N = 19)): 2 (10.5) n (%)
Hypocalcaemia ([2]; All Grades (N = 19)): 2 (10.5) n (%)
Hypokalaemia ([2]; All Grades (N = 19)): 2 (10.5) n (%)
Hypophosphataemia ([2]; All Grades (N = 19)): 2 (10.5) n (%)
Muscle spasms ([2]; All Grades (N = 19)): 2 (10.5) n (%)
Nasopharyngitis ([2]; All Grades (N = 19)): 2 (10.5) n (%)
Nausea ([2]; All Grades (N = 19)): 5 (26.3) n (%)
Neutropenia ([2]; All Grades (N = 19)): 4 (21.1) n (%)
Oropharyngeal pain ([2]; All Grades (N = 19)): 2 (10.5) n (%)
Pancytopenia ([2]; All Grades (N = 19)): 2 (10.5) n (%)
Rash ([2]; All Grades (N = 19)): 5 (26.3) n (%)
thrombocytopenia ([2]; All Grades (N = 19)): 6 (31.6) n (%)
Abdominal pain ([2]; Grade 3 or 4 (N = 9)): 0 n
Anaemia ([2]; Grade 3 or 4 (N = 9)): 1 n
Arthralgia ([2]; Grade 3 or 4 (N = 9)): 0 n
Back pain ([2]; Grade 3 or 4 (N = 9)): 0 n
COVID-19 ([2]; Grade 3 or 4 (N = 9)): 1 n
Chest pain ([2]; Grade 3 or 4 (N = 9)): 0 n
Constipation ([2]; Grade 3 or 4 (N = 9)): 0 n
Contusion ([2]; Grade 3 or 4 (N = 9)): 0 n
Cough ([2]; Grade 3 or 4 (N = 9)): 0 n
Diarrhoea ([2]; Grade 3 or 4 (N = 9)): 1 n
Dizziness ([2]; Grade 3 or 4 (N = 9)): 0 n
Dry skin ([2]; Grade 3 or 4 (N = 9)): 0 n
Dyspnoea ([2]; Grade 3 or 4 (N = 9)): 1 n
Fatigue ([2]; Grade 3 or 4 (N = 9)): 0 n
Flank pain ([2]; Grade 3 or 4 (N = 9)): 0 n
Headache ([2]; Grade 3 or 4 (N = 9)): 0 n
Herpes zoster ([2]; Grade 3 or 4 (N = 9)): 0 n
Hypertension ([2]; Grade 3 or 4 (N = 9)): 0 n
Hyperuricaemia ([2]; Grade 3 or 4 (N = 9)): 0 n
Hypocalcaemia ([2]; Grade 3 or 4 (N = 9)): 1 n
Hypokalaemia ([2]; Grade 3 or 4 (N = 9)): 1 n
Hypophosphataemia ([2]; Grade 3 or 4 (N = 9)): 0 n
Muscle spasms ([2]; Grade 3 or 4 (N = 9)): 0 n
Nasopharyngitis ([2]; Grade 3 or 4 (N = 9)): 0 n
Nausea ([2]; Grade 3 or 4 (N = 9)): 1 n
Neutropenia ([2]; Grade 3 or 4 (N = 9)): 3 n
Oropharyngeal pain ([2]; Grade 3 or 4 (N = 9)): 0 n
Pancytopenia ([2]; Grade 3 or 4 (N = 9)): 1 n
Rash ([2]; Grade 3 or 4 (N = 9)): 0 n
thrombocytopenia ([2]; Grade 3 or 4 (N = 9)): 4 n
tolerability ([2]; heavily pre-treated CML population): well tolerated
Grade 3 or 4 TEAE neutropenia ([2]; in vivo): 33.3%
Grade 3 or 4 TEAE thrombocytopenia ([2]; in vivo): 44.4%
IC50 [3]: nanomolar
